Source: patent US20080103127A1, “METHODS FOR TREATING DISRUPTIVE BEHAVIOR DISORDERS” (priority 2006, published 2008)

How the values were obtained:
[1] = system: dominant rats; test: Reduction of Dominant Behavior Model (RDBM) of mania, dominant-submissive rat food competition test; format: in vivo, Sprague-Dawley rats
Text: (§1) In this study, the effects of COMPOUND #7 on dominant or submissive behavior in pairs of rats competing for food are examined. It has been shown that anti-manic drugs, including anticonvulsants, decrease dominance and antidepressant drugs reduce submissiveness. This model uses dominant behavior as a model of mania and submissive behavior as a model of depression. The dominance and submissiveness is defined in a competition test and measured as the relative success of two food-restricted rats to gain access to a feeder. Rats are randomly paired and placed in an apparatus allowing them to compete for a food reward. The dominant-submissive relationship develops over a 2-week period. The submissive or dominant animals in pairs selected after 2 weeks of training were treated orally […] (b.i.d.) with COMPOUND #7 at 3 or 30 mg/kg for 5 weeks. The partner of the drug-treated animal was treated with vehicle.
(§2) The objective of this study was to determine if COMPOUND #7 is active in the Reduction of Submissive Behavior Model (RSBM) of depression and the Reduction of Dominant Behavior Model (RDBM) of mania. Measurements were made at two doses (3 and 30 mg/kg) after oral twice a day (b.i.d.) administration. The effect of the drug in the RSBM was compared to the effect of fluoxetine (10 mg/kg) and vehicle (0.5% methylcellulose). The effect of the drug in the RDBM was compared with the effect of lithium (100 mg/kg) and vehicle (0.5% methylcellulose). The endpoints measured were the development of a significant reduction of submissive or dominant behavior and its time of onset.
(§3) The DSR developed by two rats competing for food uses the apparatus in FIG. 1. The methodology and equipment are described in several publications. (See, Malatynska E, Goldenberg R, Shuck L, Haque A, Zamecki P, Crites G, Schindler N, Knapp R J. Reduction of submissive behavior in rats: a test for antidepressant drug activity. Pharmacology 2002; 64:8; Malatynska E, Rapp R, Crites G. Dominant behavior measured in a competition test as a model of mania. In: International Behavioral Neuroscience Society Meeting, ed. IBNSCapri, Italy, 2002, p 26.; Bonnet U. Moclobemide: therapeutic use and clinical studies. CNS Drug Rev 2003; 9:97; Danysz W, Plaznik A, Kostowski W, Malatynska E, Jarbe T U, Hiltunen A J, Archer T. Comparison of desipramine, amitriptyline, zimeldine and alaproclate in six animal models used to investigate antidepressant drugs. Pharmacol Toxicol 1988; 62:42; Knapp R J, Goldenberg R, Shuck C, Cecil A, Watkins J, Miller C, Crites G, Malatynska E. Antidepressant activity of memory-enhancing drugs in the reduction of submissive behavior model. Eur J Pharmacol 2002; 440:27; Kostowski W, Malatynska E, Plaznik A, Dyr W, Danysz W. Comparative studies on antidepressant action of alprazolam in different animal models. Pol J Pharmacol Pharm 1986; 38, 471; Malatynska E, De Leon I, Allen D, Yamamura Hi. Effects of amitriptyline on GABA-stimulated ^36Cl^− uptake in relation to a behavioral model of depression. Brain Res Bull 1995; 37:53; Malatynska E, Kostowski W. The effect of antidepressant drugs on dominance behavior in rats competing for food. Pol J Pharmacol Pharm 1984; 36:531; Malatynska E, Kostowski W. Desipramine antagonizes clonidine-induced suppression of dominance in rats: possible involvement of amygdaloid nuclei. Pol J Pharmacol Pharm 1988; 40:357).
In the experiments described in this report Sprague-Dawley rats weighing 160 to 180 g were used. […]

[2] = system: submissive rats; test: Reduction of Submissive Behavior Model (RSBM) of depression, dominant-submissive rat food competition test; format: in vivo, Sprague-Dawley rats
Text: as §1, §2, §3
In the experiments described in this report Sprague-Dawley rats weighing 160 to 180 g were used. Testing for the development of a DSR between paired rats begins with the random assignment of rats into pairs. Rats from pairs are housed separately between test sessions with other animals in groups of four. The animals are food-deprived overnight with free access to water.
The test involves placing each member of a pair in opposite chambers of the testing apparatus. These chambers are connected through a narrow tunnel with a small container of sweetened milk at the center. […]

`NC(=O)OC[C@@H](O)c1ccccc1Cl` [COMPOUND #7, carisbamate] was tested, and the “onset of significant decrease of dominant rat performance (time of treatment)” value ([1]; 3 mg/kg b.i.d. p.o.) was 3 weeks, the “extent and onset of the effect on dominant rats compared with lithium” value ([1]; 3 mg/kg b.i.d. p.o. vs lithium 100 mg/kg i.p.) was “not significantly different” and the “performance of dominant rats” value ([1]; 3 mg/kg b.i.d. p.o., 5 weeks, dominant rat treated, partner vehicle) was “decreased the performance”. For the same compound, the “onset of increased competitiveness of dominant rats (time of treatment)” value ([1]; 30 mg/kg b.i.d. p.o.) was 2 weeks, the “competitiveness of dominant rats compared to water treated dominant rats” value ([1]; 30 mg/kg b.i.d. p.o., 5 weeks, dominant rat treated) was “significantly increased the competitiveness” and the “effect on submissive rat behavior” value ([2]; 3 mg/kg b.i.d. p.o., 5 weeks, submissive rat treated, partner vehicle) was “did not have any effect”. The “onset of increased competitiveness of submissive rats (time of treatment)” value ([2]; 30 mg/kg b.i.d. p.o.) was 1 week, the “efficacy in submissive rats compared with fluoxetine” value ([2]; 30 mg/kg b.i.d. p.o. vs fluoxetine 10 mg/kg i.p. once a day) was “same efficacy as fluoxetine” and the “competitiveness of submissive rat compared to vehicle-treated submissive rats” value ([2]; 30 mg/kg b.i.d. p.o., 5 weeks, submissive rat treated) was “significantly increased competitiveness”.
